# Measured values reported in the Bradley open melting point set (2014).
# Where “and” joins values, the source holds several entries; their conditions need not be identical. Equal entries are not always repeated.
row,SMILES,melting point
1,CC1(C)[C@H]2CC[C@](C)(C2)[C@H]1O [(1R)-endo-fenchyl alcohol],41 °C
2,CC(=O)c1ccc(O)cc1 [4-hydroxyacetophenone],108 °C
3,CCC1(C2=CCCCCC2)C(=O)NC(=O)NC1=O [heptabarbital],174 °C
4,CC(/C=C(\C)C#Cc1ccccc1)=N/Nc1ccc([N+](=O)[O-])cc1[N+](=O)[O-],198 °C
5,"Clc1cc(Cl)cc(Br)c1 [1-bromo-3,5-dichlorobenzene]",75 °C
6,c1ccc(OP(Oc2ccccc2)Oc2ccccc2)cc1 [triphenyl phosphite],23 °C
7,CC(=O)Nc1ccc(Cl)cc1F [2-fluoro-4-chloroacetanilide],157 °C
8,CC(=O)Nc1ccc(C(C)C)cc1 [4'-isopropylacetanilide],104 °C
9,COc1ccc(N)c(C)c1 [4-Methoxy-2-methylaniline],13.5 °C
10,O=C(O)c1cnn(-c2ccc([N+](=O)[O-])cc2)c1C(F)(F)F,201 °C
11,O=C1OC(Sc2ccccc2)c2ccccc21 (stereo not drawn) [3-(phenylsulfanyl)-2-benzofuran-1(3H)-one],103 °C
12,CCC1CO1 (stereo not drawn) [2-Ethyloxirane],-60 °C
13,CC(=O)C(=O)O [2-Oxopropanoic acid],12 °C
14,COc1ccc2c(c1)C(=O)C(=O)N2 [5-methoxyisatin],201 °C
15,"O=C(O)/C=C/c1ccc(F)c(F)c1 [3,4-difluorocinnamic acid]",195 °C
16,"Cl/C=C/Cl [(E)-1,2-Dichloroethene]",-50 °C
17,O=C1CCCCC1c1ccccc1 (stereo not drawn) [2-phenylcyclohexanone],58 °C
18,"COc1ccc(/C=C/c2cccc(OC)c2O)cc1OC [2-[(E)-2-(3,4-Dimethoxyphenyl)vinyl]-6-methoxyphenol]",165 °C
19,Cc1ccc(C(=O)c2ccccc2C(=O)O)cc1 [2-(4-methylbenzoyl)benzoic acid],140 °C
20,"Nc1nc[nH]n1 [3-amino-1,2,4-triazole]",151 °C
21,Clc1ccc(-c2ccc(Cl)cc2)cc1 [PCB-15],149 °C
22,"O=C(OCCc1cc([N+](=O)[O-])c(CCOC(=O)c2ccccc2)cc1[N+](=O)[O-])c1ccccc1 [(2,5-dinitrobenzene-1,4-diyl)diethane-2,1-diyl dibenzoate]",158 °C
23,ClC(Cl)(Cl)c1ccccc1 [benzotrichloride],-4 °C

row,SMILES,melting point
1,COS(=O)(=O)c1ccc(C)cc1 [methyl_p-toluenesulfonate],79 °C
2,"Nc1c(Br)cccc1Br [2,6-dibromoaniline]",80 °C
3,C/C(C)=CCC [2-Methylpent-2-ene],-135 °C
4,FC(F)(F)c1ccccc1Cl [2-chlorobenzotrifluoride],-6 °C
5,"O/N=C(/C=C/c1ccccc1)c1ccccc1 [2-Propen-1-one, 1,3-diphenyl-, oxime, (E,Z)-]",116 °C
6,OCc1ccc(Cl)cc1 [(4-Chlorophenyl)methanol],71 °C
7,COc1ccc(C=O)cc1 [4-methoxybenzaldehyde],1 °C
8,CCOC(=O)c1ccccc1C(=O)OCC [Diethyl phthalate],-3 °C
9,"CC12CCC(C(C(c3ccccc3)c3ccccc3)C1=O)C2(C)C (stereo not drawn) [2-Bornanone, 3-(diphenylmethyl)-]",107 °C
10,OCc1ccc(Cl)cc1 [4-chlorobenzyl alcohol],71 °C
11,CCC1(O)CCC2C3CCC4CC(OC(C)=O)CCC4(C)C3CCC21C (stereo not drawn) [17-hydroxypregnan-3-yl acetate],165 °C
12,Nc1cccc(C(F)(F)F)c1 [3-(trifluoromethyl)aniline],6 °C
13,Cc1ccc(C(=O)O)cc1F [3-fluoro-4-methylbenzoic acid],170 °C
14,COc1ccc(C)cc1O [2-methoxy-5-methylphenol],37 °C
15,"Oc1cc2ccccc2cc1O [2,3-dihydroxynaphthalene]",164 °C
16,Nc1ccc([N+](=O)[O-])cc1N [4-nitro-o-phenylenediamine],201 °C
17,"OB(O)c1c(F)c(F)cc(F)c1F [2,3,5,6-tetrafluorobenzeneboronic acid]",143 °C
18,Cc1ccc(F)c(C=O)c1Cl [2-chloro-6-fluoro-3-methylbenzaldehyde],27 °C
19,CCNc1nc(NC(C)(C)C)nc(SC)n1,104 °C
20,"O=C(Cl)c1cc(Cl)cc(Cl)c1 [3,5-dichlorobenzoyl chloride]",26 °C
21,O=C=N/C1CCCCC1 [Isocyanatocyclohexane],-80 °C
22,O=C(O)c1cccnc1Oc1ccc(F)cc1 [2-(4-fluorophenoxy)nicotinic acid],184 °C

# Second part, the compound after the results:
row,melting point,SMILES
1,68 °C,OCC(O)c1ccccc1 (stereo not drawn) [styrene glycol]
2,-123 °C,CCC[C@H]1CCC[C@@H]1C (relative stereo) [trans-1-methyl-2-propylcyclopentane]
3,15.5 °C,[2H]OC(=O)C([2H])([2H])[2H] [(~2~H_4_)Acetic acid]
4,293 °C,O=C\1\C=C5/[C@@](/C=C/1)(C)[C@]2(F)[C@H]([C@H]3[C@](C[C@@H]2O)([C@@]4(OC(O[C@@H]4C3)(C)C)C(=O)CO)C)CC5 [triamcinolone acetonide]
5,183 °C,CC(=O)NS(=O)(=O)c1ccc(N)cc1 [sulfacetamide]
6,81 °C,"CCOC(=O)c1cc(C)nn1C(=O)OCC [diethyl 3-methyl-1H-pyrazole-1,5-dicarboxylate]"
7,54 °C,"CCOC(=O)/C=C/c1cccc(/C=C/C(=O)OCC)c1 [diethyl (2E,2'E)-3,3'-benzene-1,3-diylbisprop-2-enoate]"
8,44 °C,COC(=O)c1ccc(Cl)cc1 [methyl_4-chlorobenzoate]
9,72 °C,CN(C)c1cccc2c(S(=O)(=O)Cl)cccc12 [dansyl chloride]
10,-144 °C,CCCCCCCCCCCCS[C@H](C(=O)Nc1cc(C)c(O)c(C)c1C)c1ccccc1 [eflucimibe]
11,124 °C,COC(=O)CCC(C)C1CCC2C3C(=O)C(Br)C4CCCCC4(C)C3CCC12C (stereo not drawn) [methyl 6-bromo-7-oxocholan-24-oate]
12,230 °C,CCCOc1ccc2[nH]c(NC(=O)OC)nc2c1 [oxibendazole]
13,25 °C,"CC(O)C(C)O (stereo not drawn) [Butane-2,3-diol]"
14,176 °C,NC(N)=S [Thiourea]
15,306 °C,Nc1nc(N)c2nc(-c3ccccc3)c(N)nc2n1 [Triamterene]
16,-135 °C,C1=CCCC1 [cyclopentene]
17,69 °C,COC(=O)c1cccc(C(=O)OC)c1 [dimethyl isophthalate]
18,43 °C,CCCCCCCC/C=C/CCCCCCCC(=O)O [elaidic acid]
19,218 °C,CC(=O)Nc1cccc2c([N+](=O)[O-])cccc12 [N-(5-nitronaphthalen-1-yl)acetamide]
20,55 °C,CCCCCCCCCCCCCC(=O)O [tetradecanoic acid]
21,147 °C,Clc1ccccc1C(c1ccccc1)(c1ccccc1)n1ccnc1 [clotrimazole]
22,200 °C and 199 °C,CN1C(C(=O)Nc2ccccn2)=C(O)c2ccccc2S1(=O)=O [piroxicam]
23,134 °C,CC(C)(C)OC(=O)N1CCC[C@@H]1C(=O)O [N-boc-D-proline]
